Data set [1] relates to TGM2. The settings on record: cited from earlier work.
The test system of data set [2] is TGM2. The settings on record: cited from earlier work. This is another data set of the same source.
Data set [3] addresses TGM2 (Cavia cutleri, UniProt P08587). The data set is classed as biochemical, guinea pig liver.
Data set [4] is classed as physicochemical. The settings on record: pH 5.
In another data set the test system is human CLEC10A (CD301). The settings on record: cited from earlier work.
Data set [5] deals with LPS-treated dorsal skin of mice. Also noted: species or system Female C57BL/6J mice. The settings on record: mouse, in vivo.
In data set [6] the test system is N-acetylgalactosamine‒specific lectins. The settings on record: cited from earlier work.
For data set [7], the system named is sialic acid‒specific plant lectins. The settings on record: cited from earlier work.
The subject of data set [8] is recombinant human siglecs. The settings on record: cited from earlier work.

Entries after “also recorded” stand apart in the source; their conditions may differ. Read-outs that look alike come from different tables or passages of the source. Where no end group is shown, it is not given here. The star is where a group is joined. Biotin = O=C1N[C@H]2[C@H](CS[C@H]2CCCCC(=O)*)N1

As a reminder, the Km is the substrate concentration at which the rate is half of its maximum.

TGM2 (Cavia cutleri, UniProt P08587), sequence (P08587 whole entry): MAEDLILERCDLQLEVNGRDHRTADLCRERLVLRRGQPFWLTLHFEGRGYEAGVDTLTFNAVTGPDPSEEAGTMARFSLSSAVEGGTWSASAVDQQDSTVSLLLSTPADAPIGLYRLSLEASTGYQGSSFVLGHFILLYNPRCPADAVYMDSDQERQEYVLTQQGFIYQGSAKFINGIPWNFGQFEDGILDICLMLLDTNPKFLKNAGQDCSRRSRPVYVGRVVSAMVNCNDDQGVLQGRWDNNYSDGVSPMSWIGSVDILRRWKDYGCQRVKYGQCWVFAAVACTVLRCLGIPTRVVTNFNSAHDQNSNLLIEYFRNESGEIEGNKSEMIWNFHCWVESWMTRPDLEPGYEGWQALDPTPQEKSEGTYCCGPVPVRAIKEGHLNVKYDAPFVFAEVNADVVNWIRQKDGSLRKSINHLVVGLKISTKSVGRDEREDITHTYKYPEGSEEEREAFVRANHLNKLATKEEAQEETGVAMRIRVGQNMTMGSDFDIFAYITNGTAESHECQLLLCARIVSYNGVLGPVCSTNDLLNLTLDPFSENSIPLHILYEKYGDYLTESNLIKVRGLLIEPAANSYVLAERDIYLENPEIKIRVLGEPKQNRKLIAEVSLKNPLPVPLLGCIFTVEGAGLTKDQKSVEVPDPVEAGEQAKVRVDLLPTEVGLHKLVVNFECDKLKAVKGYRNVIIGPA

With `NCCCCN` [putrescine], the “acceptor amine (second substrate) activity” value with TGM2 [1] is given as “active second substrates”.
On to `C[C@@H]1C[C@H]2[C@@H]3CCC4=CC(=O)C=C[C@]4(C)[C@@]3(F)[C@@H](O)C[C@]2(C)[C@@]1(O)C(=O)CO` [dexamethasone], for which, in the data set with TGM2 [2], the “induction of TGM2 expression” value was “Expression of TGM2 is induced”.
As to [(NQHTPR-GGGS)2K2]K-NH2 [sv6D], on TGM2 [3], the “Km relative to svL4” value was “higher Km values”, the “TGM2 functional substrate / cross-linking to lysine” value is given as “the enzyme can use glutamine from the arms; also recorded: functional substrates of transglutaminase (TGM) 2”, the “TGM2 substrate activity” value was “poor substrates in vitro” and the “TGM2 substrate activity with aged enzyme” value is “gained the ability to use sv6D”. For the same compound, in data set [4], the positive charge is 12. For the same compound, the “binding to human CLEC10A” value in the data set with human CLEC10A (CD301) is “binds with high specificity and avidity to recombinant and native human CLEC10A (CD301); also recorded: bind specifically to human CLEC10A”. In addition, in data set [5], the mean epidermal thickness is recorded as 17.1 μm and the “repair of structural disruption of the epidermis (general statement)” value is recorded as “structural disruption of the epidermis was repaired”. Also, the “binding to other N-acetylgalactosamine‒specific lectins” value in data set [6] is “bind specifically to human CLEC10A ([Hoober, 2020]) and other N-acetylgalactosamine‒specific lectins”.
[(NPSHPLSG-GGGS)2K]2K-NH2 [svH1C]: the “binding to sialic acid‒specific plant lectins” value in [7] was “binds to sialic acid‒specific plant lectins”. Moreover, in data set [5], the “effectiveness, topical (general statement)” value was “not effective when applied topically”; the “epidermal disruption / integrity of skin surface” value is “not when applied topically”; the “epidermal morphology / thickness” value is “ineffective in restoring normal epidermal morphology”. Moreover, in [5] (sc), the “epidermal disruption / recovery, lesions” value is reported as “effective when injected subcutaneously; also recorded: lesions were absent”; the epidermal thickness result is “most areas of the skin contained a thickened epidermis”; the neutrophils in dermis entry is on record as “abundant neutrophils in the dermis”. Moreover, in data set [8], the “binding to recombinant human siglecs” value is “recombinant human siglecs”.
Take Biotin-TVQQEL: the Km in the data set with TGM2 [1] (read-out: Km of standard peptide) was 1 µM.
On to carbobenzoxy-L-glytaminylglycine, for which the Km in the data set with TGM2 [1] was 22000 µM.
Take [(VQATQS-GGGS)2K2]K-NH2 [svC1]: at TGM2 [3], the “Km relative to svL4” value is on record as “higher Km values”; the “TGM2 functional substrate / cross-linking to lysine” value is listed as “the enzyme can use glutamine from the arms”; the “TGM2 substrate activity” value is reported as “poor substrates in vitro”; the “TGM2 substrate activity with aged enzyme” value is recorded as “to a lesser extent, svC1 as substrates”. The “binding to human CLEC10A” value in the data set with human CLEC10A (CD301) was “does not bind to CLEC10A”. In addition, in data set [5], the mean epidermal thickness was found to be 15.5 μm and the “reduction of epidermal thickness” value is reported as “active in reducing the thickness of the epidermis”.
In the case of `NCCCCNCCCN` [spermidine], the “acceptor amine (second substrate) activity” value with TGM2 [1] is “active second substrates”.
On to `[Ca+2]` [Ca^2+, calcium ion], for which, in the data set with TGM2 [1], the “activation constant, KA” value is 6.9 mM.
For [(VQATQSNQHTPR-GGGS)2K2]K-NH2 [svL4], on TGM2 [3], the “TGM2 functional substrate / cross-linking to lysine” value is “the enzyme can use glutamine from the arms; also recorded: functional substrates of transglutaminase (TGM) 2” and the “TGM2 substrate activity with aged enzyme” value was “lost over half of the activity”. Moreover, the Km on TGM2 [3] (pH 7.5) stood at 7 µM. This compound displayed a positive charge in data set [4] of 12. In addition, in the data set with human CLEC10A (CD301), the “binding to human CLEC10A” value is “binds with high specificity and avidity to recombinant and native human CLEC10A (CD301); also recorded: bind specifically to human CLEC10A”. Further, in [5], the “epidermal disruption / integrity of skin surface” value is on record as “restored the integrity of the skin surface, with no epidermal disruptions”; the “epidermal morphology / thickness” value is “uniformly of normal thickness; also recorded: normal morphology with thin epidermis; also recorded: the epidermis had returned to a normal morphology”; the mean epidermal thickness was 16.1 μm; the “neutrophils (Ly6G^+) in dermis” value is “nearly free of neutrophils; also recorded: essentially free of neutrophils; also recorded: neutrophils were absent”. Besides, in data set [5], the “neutrophils in the dermis (summary statement)” value is recorded as “loss of neutrophils in the dermis”, the “repair of structural disruption of the epidermis (general statement)” value is reported as “repair of areas of structural disruption of the epidermis; also recorded: structural disruption of the epidermis was repaired” and the “thickness of the epidermis (summary statement)” value was “reduction of the thickness of the epidermis”. Moreover, in data set [5] (sc), the “density of dermal collagen” value was “an increased density of dermal collagen was noted”; the “epidermal disruption / recovery, lesions” value is listed as “no recovery occurred”; the epidermal thickness entry is listed as “did not reduce epidermal thickness”. Moreover, the “binding to other N-acetylgalactosamine‒specific lectins” value in data set [6] was “bind specifically to human CLEC10A ([Hoober, 2020]) and other N-acetylgalactosamine‒specific lectins”.

Source of the values: publication PMC9418603 (JID Innovations, 2022).
